Test results: paper PMC11703096 (PLOS ONE, 2025)

Tests used:
[1] = target: T1, A32WT (vaccinia virus A32, putative genome packaging ATPase) (Vaccinia virus WR, UniProt P68615, L234K/Q237A); details: read-out: A32LL234K_Q237A / - / DNA
T1 construct: gene OPG160

[2] = target: T2, A32WT (vaccinia virus A32, putative genome packaging ATPase) (Vaccinia virus WR, UniProt P68615, K31A); details: read-out: A32K31A / - / DNA
T2 construct: gene OPG160

[3] = target: the molecule itself; test: native gel or EMSA

Molecule	Km [1]	Km [2]	binding result [3]
Nc1ncnc2c1ncn2[C@@H]1O[C@H](COP(=O)(O)OP(=O)(O)OP(=O)(O)O)[C@@H](O)[C@H]1O [ATP]	0.66 µM	0.2 µM	–
vaccinia virus A32 protein with an N-terminal thioredoxin tag and a C-terminal hexahistidine tag (A32WT) (enzyme) MNCFQEKQFSRENLLKMPFRMVLTGGSGSGKTIYLLSLFSTLVKKYKHIFLFTPVYNPDYDGYIWPNHINFVSSQESLEYNLIRTKSNIEKCIAVAQNHKKSAHFLLIFDDVGDKLSKCNTLIEFLNFGRHLNTSIILLCQTYRHVPILGRANITHFCSFNISISDAENMLRSMPVKGKRKDILNMLNMIQTARSNNRLAIIIEDSVFCEGELRICTDTADKDVIEQKLNIDILVNQYSHMKKNLNAILESKKTKLCNSDQSSSSKNVSS	–	–	binds
